{"source": "patent US10100030B2", "about": "(Kissei Pharmaceutical Co., Ltd., priority 2013, dated 2018)", "key": {"NK1 receptor": {"target": "NK1 receptor (Meriones unguiculatus (Mongolian jird) (Gerbillus unguiculatus), UniProt Q5DUB1)", "sequence (Q5DUB1 whole entry)": "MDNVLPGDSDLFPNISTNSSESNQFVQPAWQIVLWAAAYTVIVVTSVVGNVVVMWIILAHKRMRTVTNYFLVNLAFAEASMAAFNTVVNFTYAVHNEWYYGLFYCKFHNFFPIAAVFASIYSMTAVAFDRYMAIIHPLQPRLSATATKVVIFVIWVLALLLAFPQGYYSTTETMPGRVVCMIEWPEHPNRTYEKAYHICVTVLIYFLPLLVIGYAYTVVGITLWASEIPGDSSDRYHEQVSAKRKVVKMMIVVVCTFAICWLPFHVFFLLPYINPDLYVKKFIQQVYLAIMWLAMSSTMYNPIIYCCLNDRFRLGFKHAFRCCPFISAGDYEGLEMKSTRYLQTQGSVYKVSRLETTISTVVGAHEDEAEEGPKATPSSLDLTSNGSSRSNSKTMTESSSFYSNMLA", "experiment": "Effect on GR73632-induced foot-tapping", "type": "in vivo", "conditions": "0.3 mg/kg from the jugular vein, GR73632 after four hours, male gerbil", "protocol": "(1) Effect on Foot-tapping\n(§1) A male gerbil (Japan SLC) was anesthetized with isoflurane, and 0.3 mg/kg of a test compound was administered from the jugular vein. After four hours, GR73632 (5 pmol/5 μl), which is an NK1 receptor agonist, was administered into the cerebral ventricle at the part 1 mm lateral to and 4.5 mm below the bregma in the head, under anesthesia with isoflurane. After the administration, the gerbil was moved to an observation cage, and the foot-tapping period during five minutes after the recovery of the righting reflex was measured. The foot-tapping inhibition rate (%) of each test compound was calculated by the following equation. Foot-tapping inhibition rate (%)={1−(Foot-tapping period when test compound was administered)/(Foot-tapping period when solvent was administered)}×100 (2) Measurement of Drug Concentrations\n(§2) In the table, Ex. No. means the Example number. Inhibition (%) is the foot-tapping inhibition rate, and Conc. (nM) is the drug concentration in the brain."}, "human NK1 receptor [1]": {"target": "T1, human NK1 receptor (Homo sapiens (Human), UniProt P25103)", "T1 sequence (P25103 whole entry)": "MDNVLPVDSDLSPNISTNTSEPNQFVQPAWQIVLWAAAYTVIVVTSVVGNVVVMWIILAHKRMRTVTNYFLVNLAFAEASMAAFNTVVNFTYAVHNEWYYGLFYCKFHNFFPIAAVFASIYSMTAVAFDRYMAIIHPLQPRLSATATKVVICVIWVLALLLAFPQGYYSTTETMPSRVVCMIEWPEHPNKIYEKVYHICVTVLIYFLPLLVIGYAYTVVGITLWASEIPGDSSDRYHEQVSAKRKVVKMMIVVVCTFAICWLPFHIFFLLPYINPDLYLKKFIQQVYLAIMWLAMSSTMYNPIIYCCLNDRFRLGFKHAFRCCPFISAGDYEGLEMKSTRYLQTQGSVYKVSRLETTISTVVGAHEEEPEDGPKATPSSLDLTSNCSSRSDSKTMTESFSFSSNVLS", "experiment": "Inhibitory effect on human NK1 receptor (substance P-induced increase in intracellular calcium concentration)", "type": "cell-based", "conditions": "HEK-293T; substance P 1 μM, compound 0.1 μM; human NK1 receptor-expressing 293T cells; read-out: SPRR (Substance P-Response Remaining)", "protocol": "Inhibitory Effect on Human NK1 Receptor\n(1) Preparation of Human NK1 Receptor-expressing Cells\nHuman NK1 receptor-expressing cells were prepared by the same methods as those described in 2-3 and 2-4 of Test Example 1.\n(2) Study on Inhibitory Effect on Increase in Intracellular Calcium Concentration\nThe human NK1 receptor-expressing cells were washed with 300 μL/well of a washing solution (20 mM HEPES/Hank's Balanced Salt Solution (HBSS) […]). A fluorescent calcium indicator (Fluo-4 Direct Calcium Assay Kit, Life Technologies, containing 0.42 mM probenecid and 0.1% bovine serum albumin, prepared according to the protocol of the product) was added to the wells at 150 μL/well, and the plate was incubated at 37° C. for 30 minutes in an incubator. Then, DMSO solutions of a test compound, which were prepared at an 80-time higher concentration using 100% dimethyl sulfoxide (DMSO), were added to the wells at 2.5 μL/well (final concentrations of 0.1, 1 and 10 μM), and the solutions were mixed. Then, the plate was further incubated at 37° C. for 30 minutes in an incubator. After 30 minutes, the intracellular calcium concentrations were measured immediately.\nThe intracellular calcium concentrations were each measured as a fluorescent signal using FDSS (registered trademark) 7000 (Hamamatsu Photonics). A substance P (Peptide Institute, Inc.) solution which was prepared at 0.4 μM or 4 μM using an assay buffer (20 mM HEPES/Hank's Balanced Salt Solution (HBSS) pH 7.3, containing 0.1% bovine serum albumin) was added automatically to each well at 50 μL/well (final concentration of 0.1 or 1 μM) 10 seconds after starting reading, and the fluorescent signal was measured up to 120 seconds.\nThe intracellular calcium concentration (%) of the cells to which a test compound was added was calculated by the equation below, where the fluorescent signal of the group to which the vehicle (DMSO) was added was regarded as 100%, and the fluorescent signal before the addition of substance P was regarded as 0%. Intracellular calcium concentration(%)=(Fluorescent signal of test compound addition group)/(Fluorescent signal of vehicle addition group)×100\nThe intracellular calcium concentration (%) calculated was regarded as the remaining agonist activity of substance P (Substance P-Response Remaining: SPRR). In the table, Ex. No. means the Example number. SPRR (%) is the value obtained when the concentration of substance P was 1 μM and the concentration of the compound was 0.1 μM."}, "CYP3A4": {"target": "CYP3A4 (Homo sapiens (Human), UniProt P08684)", "sequence (P08684 whole entry)": "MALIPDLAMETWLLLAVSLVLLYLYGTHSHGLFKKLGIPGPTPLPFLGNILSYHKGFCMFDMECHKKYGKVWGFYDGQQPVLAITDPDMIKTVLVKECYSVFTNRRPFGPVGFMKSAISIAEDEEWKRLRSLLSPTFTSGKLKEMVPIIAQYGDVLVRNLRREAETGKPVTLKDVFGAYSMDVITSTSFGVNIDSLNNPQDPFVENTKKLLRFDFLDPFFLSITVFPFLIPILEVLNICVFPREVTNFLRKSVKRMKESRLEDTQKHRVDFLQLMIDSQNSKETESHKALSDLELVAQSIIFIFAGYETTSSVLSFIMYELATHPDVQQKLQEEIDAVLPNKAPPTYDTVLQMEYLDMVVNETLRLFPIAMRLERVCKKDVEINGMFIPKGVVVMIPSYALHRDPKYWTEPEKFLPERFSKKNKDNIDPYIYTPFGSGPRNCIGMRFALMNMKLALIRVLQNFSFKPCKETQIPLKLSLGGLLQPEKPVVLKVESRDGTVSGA", "experimental": "Enzyme reaction was performed by incubating in a potassium phosphate buffer solution (pH 7.4) containing 1 nM to 20 μM test compound, 3.2 mM magnesium chloride, 0.2 pmol human CYP3A4 (BD Biosciences), 0.5 mM reduced nicotinamide adenine dinucleotide phosphate (NADPH) and 3 μM Luciferin-IPA (Promega) at 37° C. for 10 minutes. The volume of the reaction solution was 50 μL/well. The 30-minute pre-incubation group was incubated at 37° C. for 30 minutes before adding the substrate, the Luciferin-IPA solution (12.5 μL/well). At the end of the enzyme reaction, 50 μL/well of a Luciferin detection reagent (Promega) was added to the wells, and the plate was left at room temperature for 20 minutes. Then, the emission intensities were measured with Infinite M1000 (TECAN). The enzyme activities (%) relative to the value of the group to which the test compound was not added were calculated."}, "[2]": {"experiment": "Measurement of drug concentrations in the brain after foot-tapping test", "type": "in vivo", "conditions": "male; 0.3 mg/kg iv, after foot-tapping was finished, gerbil brain; read-out: Conc. (drug concentration in the brain)", "protocol": "as §1\nAfter foot-tapping was finished, laparotomy was performed immediately under anesthesia with ether, and a blood sample was taken from the abdominal vena cava. At the same time, the brain was extracted. Through a quantitative analysis using liquid chromatography-mass spectrometry (LC/MS), the concentrations of the test compound in the plasma and the brain were measured.\nas §2"}, "human NK1 receptor [3]": {"target": "T1, human NK1 receptor", "experiment": "Affinity for human NK1 receptor (125I-substance P receptor binding test)", "conditions": "membrane fraction of human NK1 receptor-expressing 293T cells; read-out: IC50 (concentration required for 50% inhibition of 125I-substance P binding)", "protocol": "Affinity for Human NK1 Receptor\n(3) Measurement of Binding Affinity to Human NK1 Receptor\n(3-1) Preparation of Membrane Fraction from Human NK1 Receptor-expressing Cells\nHuman NK1 receptor-expressing cells were prepared in a 175 cm^2 culture flask (Nippon Becton Dickinson). The formation of a complex of the human NK1 receptor expression plasmid and Lipofectamine 2000 was performed by calculating the culture area ratio and increasing the scale of the method described in the above 2-4 by the ratio. The human NK1 receptor-expressing cells were collected in a buffer solution for the membrane fraction preparation (50 mM Tris (Wako Pure Chemical). 120 mM sodium chloride (Wako Pure Chemical Industries), 5 mM potassium chloride (Wako Pure Chemical Industries), 1 mM ethylenediaminetetraacetic acid (Sigma), 0.002 mg/mL chymostatin (Peptide Institute), 0.04 mg/ bacitracin (Wako Pure Chemical Industries), 0.005 mg/mL phosphoramidon (Peptide Institute) and 0.5 mM phenylmethylsulfonyl fluoride (Wako Pure Chemical Industries), pH7.4) and centrifuged at 1,880 g for 10 minutes, and the cell sediment was suspended in the buffer solution for the membrane fraction preparation. After freezing and thawing the cells once, the cells were homogenized using a Dounce-type homogenizer (cooled on ice, 1000 rpm, 20 times). The homogenized cell suspension was centrifuged at 20,000 rpm for 10 minutes, and the supernatant was removed to obtain cell sediment. The cell sediment was suspended again in the buffer solution for the membrane fraction preparation and homogenized using a Dounce-type homogenizer (cooled on ice, 1000 rpm, 30 times). The cell suspension was centrifuged at 20,000 rpm for 10 minutes, and the supernatant was removed to obtain cell sediment. The same homogenization and centrifugation were repeated again, and final cell sediment was obtained. The final cell sediment was suspended in a buffer solution for the receptor binding test (50 mM Tris (Wako Pure Chemical Industries), 3 mM manganese chloride (Wako Pure Chemical Industries), 0.002 mg/mL chymostatin (Peptide Institute), 0.04 mg/bacitracin (Wako Pure Chemical Industries) and 0.02% bovine serum albumin (Sigma), pH 7.4), and the protein concentration was measured using BCA Protein Assay Kit (Pierce).\n(3-2) Receptor Binding Test\nThe buffer solution for the receptor binding test was dispensed to the wells of a 96-well assay plate (Greiner) at 22.5 μL/well. DMSO solutions of a test compound, which were prepared at an 80-time higher concentration using 100% dimethyl sulfoxide (DMSO), were added to the wells at 2.5 μL/well (final concentrations of 1 nM to 100 nM), and the solutions were mixed. As a radiolabeled ligand, ^125I-substance P (Substance P, [^125I]Tyr^8-, PerkinElmer) was used. ^125I-substance P was diluted with the buffer solution for the receptor binding test to a concentration resulting in […] and added to the 96-well assay plate, and the solutions were mixed. The membrane fraction prepared from the human NK1 receptor-expressing cells was diluted with the buffer solution for the receptor binding test to a concentration resulting in 8 to 10 μg/well, suspended until the suspension became in such a homogenous state that the suspension could flow through as 27G injection needle smoothly and then added to the 96-well assay plate at 150 μL/well. Then, the plate was incubated at room temperature for 60 minutes while shaking the plate. The reaction solutions were suction-filtered. through a multiscreen 96-well filter plate (Millipore) which had been pre-treated with 0.3% polyethyleneimine, and the reaction was terminated by washing with a washing solution (50 mM Tris and 0.02% bovine serum albumin, pH 7.4) four times. The bottom of the microplate was dried at 60° C., and then 100 μL/well of MicroScint 20 (PerkinElmer) was dispensed to the wells. The top of the plate was sealed with TopSeal A (PerkinElmer), and the plate was shaken for 5 to 10 minutes. […]"}}, "note": "Like-named read-outs stand apart in the source and are kept apart here."}
{"smiles": "Cc1cc(F)ccc1-c1cc(N2CCC(C(C)C(=O)O)CC2)nc(C#N)c1N(C)C(=O)C(C)(C)c1cc(C(F)(F)F)cc(C(F)(F)F)c1", "note": "(stereo not shown) [Example 8]", "values": [{"measurement": "Inhibition (foot-tapping inhibition rate)", "setting": "NK1 receptor", "result": 100, "unit": "%"}, {"measurement": "remaining activity at 0.1 µM", "setting": "human NK1 receptor [1]", "result": 69, "unit": "%"}, {"measurement": "IC50", "setting": "CYP3A4; human, 10 min, pH 7.4", "result": 1400, "unit": "nM"}, {"measurement": "concentration at 4 h", "setting": "[2]", "result": 213, "unit": "nM"}, {"measurement": "IC50", "setting": "human NK1 receptor [3]", "result": 2.25, "unit": "nM"}]}
{"smiles": "Cc1cc(F)ccc1-c1cc(N2CCC([C@@H](C)C(=O)O)CC2)ncc1N(C)C(=O)C(C)(C)c1cc(C(F)(F)F)cc(C(F)(F)F)c1", "note": "[Example 12, (R)-2-[5′-{[2-(3,5-Bistrifluoromethylphenyl)-2-methylpropionyl]methylaminol}-4′-(4-fluoro-2-methylphenyl)-3,4,5,6-tetrahydro-2H-[1,2]bipyridinyl-4-yl]propionic acid]", "values": [{"measurement": "IC50", "setting": "CYP3A4", "result": 4600, "unit": "nM"}, {"measurement": "IC50", "setting": "human NK1 receptor [3]", "result": 7.44, "unit": "nM"}]}
